Measurements published in patent US11466286B2, “Methods and compositions for conferring and/or enhancing herbicide tolerance using protoporphyrinogen oxidase or variant thereof” (FarmHannong Co., Ltd., priority 2016, dated 2022).

Legend:
[1] = system: CyPPO13 (Synechococcus sp. JA-3-3Ab PPO, SEQ ID NO: 4) variant F373M, MBP fusion; experiment: PPO inhibition assay; type: biochemical; settings: herbicide 0-5,000 nM, 50 μM substrate
[2] = system: CyPPO13 (Synechococcus sp. JA-3-3Ab PPO, SEQ ID NO: 4) variant F373I, MBP fusion; experiment: PPO inhibition assay; type: biochemical; settings: herbicide 0-5,000 nM, 50 μM substrate
Description: The enzyme activities of PPO protein and PPO protein variants were examined, and inhibition assay by PPO-inhibiting herbicides was conducted. It was confirmed that the PPO protein has low water-solubility, but in case of being expressed as a fusion protein with MBP (maltose binding protein) (MBP-PPO), the PPO protein is able to be stably expressed as water-soluble form. Therefore, the wild type and variant proteins which were expressed in the form of fusion protein with MBP were used in the present test (refer to FIG. 4).
At first, a substrate of PPO protein, Protoporphyrinogen IX was synthesized. This process was performed in the space where nitrogen gas is streamed. 6 mg of protoporphyrin IX was dissolved in 20% (v/v) EtOH 20 ml, and stirred under dark condition for 30 minutes. The obtained protoporphyrinogen IX solution was put into a 15 ml screw tube in an amount of 800 and flushed with nitrogen gas for 5 minutes. To this, 1 g of sodium amalgam was added and vigorous shaking was performed for 2 minutes. The lid was open to exhaust hydrogen gas in the tube. Thereafter, the lid was closed and incubated for 3 minutes. The […] was filtered using syringe and cellulose membrane filter. To 600 μl of the obtained […], 2M MOPS [3-(N-morpholino)propanesulfonic acid] was added in an amount of approximately 300 thereby adjusting pH to 8.0. To determine the enzyme activity of PPO protein, a reaction mixture was prepared with the following composition (based on 10 ml): 50 mM Tris-Cl (pH 8.0); 50 mM NaCl; 0.04% (v/v) Tween 20; 40 mM glucose (0.072 g); 5 units glucose oxidase (16.6 mg); and 10 units catalase (1 μl).
Two hundred microliters (200 μl) of reaction mixture containing a purified PPO protein were placed in 96 well plates, and preincubated for 30 min at room temperature to reduce the oxygen concentration by the reaction of glucose oxidase-catalase. The mineral oil was layered and then the reaction was initiated by adding the substrate, […], to a final concentration of 50 μM. The reaction proceeded at room temperature for 30 min and the fluorescence of protoporphyrin IX was measured using Microplate reader (Sense, Hidex) (excitation: 405 nm; emission: 633 nm). To calculate the PPO enzyme activity, protoporphyrinogen IX solution was kept open in the air to oxidize the solution (overnight). To this, 2.7N HCl was added, and the absorbance at 408 nm was measured. A standard curve was generated using standard protoporphyrin IX, and the PPO activity was measured by calibration of protoporphyrin IX using the standard curve of protoporphyrin IX.
The final concentration of each herbicide was as follows: […]

[3] = system: PPO-deficient BT3 E. coli (ΔPPO) with CyPPO10 wild type (Cy10 WT, SEQ ID NO: 2); experiment: Growth of transformed BT3 (ΔPPO) on tiafenacil media; type: cell-based
Description: (§1) After transforming PPO-deficient BT3 E. coli (ΔPPO) with CyPPO10 or CyPPO13, the transformed BT3 (ΔPPO) was cultured on LB agar plates containing PPO-inhibiting herbicide to examine the growth level of the transformed BT3 (ΔPPO). BT3 (ΔPPO) strain was obtained from Hokkaido University (Japan). The BT3 (ΔPPO) strain is deficient in hemG-type PPO and has kanamycin tolerance (refer to “Watanabe et al., Dual targeting of spinach protoporphyrinogen oxidase II to mitochondria and chloroplasts by alternative use of two in-frame […], JBC 2001 276(23):20474-20481; Che et al., Molecular Characterization and Subcellular Localization of Protoporphyrinogen Oxidase in Spinach Chloroplasts, Plant Physiol. 2000 September; 124(1):59-70”).
(§2) CyPPO10 and CyPPO13 genes were cloned in pACBB vector (Plasmid #32551; Addgene; refer to FIG. 1).
(§3) For seed culture of E. coli transformed with respective genes, each single colony of E. coli transformant as provided above was cultured in 3 ml of LB broth containing chloramphenicol overnight (220 rpm, 37° C.), and 50 to 100 μl were subcultured in a new 3 ml of LB broth, and they were cultured until absorbance (OD600) became 0.5 to 1, and they were diluted with LB broth to absorbance (OD600) of 0.5. The diluted solution was serially diluted again 5 times by a factor of one tenth with LB broth. […] The LB Agar media were incubated at 37° C., under light condition, and level of inhibiting growth was observed after 16 to 20 hours of incubation.

[4] = system: PPO-deficient BT3 E. coli (ΔPPO) with CyPPO13 wild type (Cy13 WT, SEQ ID NO: 4); experiment: as above; type: cell-based
Description: as §1, §2, §3

[5] = system: BT3 (ΔPPO) E. coli with CyPPO10m-6 (E225G, G258S, Q266L, T336I, V356F, F360M, A364D, R406G, W419R; SEQ ID NO: 131); experiment: Growth of BT3 with error-prone PCR mutant of CyPPO10; type: cell-based; settings: up to 200 μM herbicide
[6] = system: wild type A. thaliana (Col-0 ecotype); experiment: Herbicide injury of A. thaliana plants; type: in vivo, Arabidopsis thaliana; settings: 1 μM spray, within 7 days
Description: For comparison, the same test was conducted using the wild type A. thaliana (Col-0 ecotype).

[7] = system: Kwangan soybean (non-transformed); experiment: Herbicide tolerance of soybean; type: in vivo; settings: 5 μM painted on leaves, 7 days
[8] = system: soybean transformed with CyPPO10 A167L+F360M; experiment: Herbicide tolerance of soybean; type: in vivo
[9] = system: A. thaliana transformants with CyPPO10 or CyPPO13 or variants; experiment: Herbicide tolerance of A. thaliana transformants (T1); type: in vivo, Arabidopsis thaliana; settings: 1 μM spray
Excerpt: A. thaliana was transformed with a binary vector having ORF of a selectable marker, bar gene (glufosinate-tolerant), and that of each encoding gene of CyPPO10 or CyPPO13 variants. The transgenic plant was examined for cross-tolerance towards glufosinate and PPO-inhibiting herbicides. The bar gene was also used to examine whether the transgene was stably inherited during generations. NOS promoter and E9 terminator were used for bar gene expression.

[10] = system: A. thaliana T3 lines with CyPPO10 wild type or mutants (F360M, F360I, F360L, F360C, A167C), CyPPO13 wild type or mutants (F373M, F373C, F373I, A177C …); experiment: Seed germination of A. thaliana transformants on herbicide media; type: in vivo, Arabidopsis thaliana; settings: 7 days

COC(=O)CCNC(=O)C(C)Sc1cc(-n2c(=O)cc(C(F)(F)F)n(C)c2=O)c(F)cc1Cl (centres unmarked) [Tiafenacil]
IC50 [1]: 56 nM
IC50 [2]: 135 nM
growth ([3]; 100 μM tiafenacil): at the similar level to that of the medium containing no tiafenacil
growth ([3]; 400 μM tiafenacil): grew well
growth ([4]; 100 μM tiafenacil): at the similar level to that of the medium containing no tiafenacil
growth ([4]; 400 μM tiafenacil): grew well
cell viability [5]: cell viability similar to that of cells with wild type CyPPO10
plant damage [6]: completely died
leaf damage [7]: severe damage
leaf damage ([8]; T0, 15 μM painted on leaves): no damage
damage level ([8]; T1, 25 μM tiafenacil spray, 5 days): no damage
plant damage [9]: no damage
seed germination ([10]; 25 μM glufosinate+30 nM tiafenacil+40 nM saflufenacil): germinated
seed germination ([10]; 25 μM glufosinate+70 nM tiafenacil): germinated
